IC50 data for one compound are collected here from patent US11007273B2, “Prochelators as targeted prodrugs for prostate cancer and methods of making and using same” (Duke University, priority 2017, dated 2021).

For one experiment, the system named is PC-3 cells. Briefly: cells. Particulars: Homo sapiens, PC-3. The experiment is classed as cell-based, human. Here is the method: (§1) Antiproliferation assay: To determine the amount of Cu(II) required for cell studies a checkerboard assay was performed by varying the prodrug or drug concentration and Cu(II) concentration. 22RV1, LNCaP, PC3, MCF-7, and PWR-1E (5,000 cells/well) were seeded in 96-well plates with regular media (22Rv1, LNCaP, and PC-3 in RPMI with 10% FBS; MCF-7 in DMEM with 10% FBS; PWR-1E in Keratinocyte-SFM) and let adhere for 24 h. The following day, the media was replaced with serum free media and cells were treated as indicated for an additional 24 h or 72 h. Cell proliferation was measured using a fluorometric resazurin reduction method. 20 μL of 700 μM Resazurin (Sigma R7017) was added in each well and incubated at 37° C. for 2 h. Fluorescence at 580 nm was measured by exciting at 555 nm with a plate reader. Each experiment was performed in triplicate, and the experiments were repeated three times. Viability vs drug concentration plot from a representative experiment are shown with standard deviation from the experiment as error bar. The error bar in IC50 values represents standard deviation from three different experiments.

A further experiment concerns LNCaP cells. Briefly: cells. Format: cell-based, human. Particulars: Homo sapiens, LNCaP, LNCaP. Here is the method: as §1

Read-outs that look alike come from different tables or passages of the source.

The term IC50 denotes the concentration needed to halve the response being measured. Regarding `CCN(CC)C(=S)SCc1ccc(NC(=O)CC[C@H](N)C(=O)O)cc1` [Glu-DTC], the IC50 was about 12000 nM with PC-3 cells (initial experiments, PC3, 24 h, above maximum tested 10 μM, obtained by extrapolation of the curve (FIG. 10A), read-out: IC50); 5500 ± 100 nM in the experiment with PC-3 cells (24 h, 1 μM CuSO4, read-out: IC50 with 1 μM CuSO4); 1320 ± 250 nM with PC-3 cells (72 h, 1 μM CuSO4, read-out: IC50 with 1 μM CuSO4); 800 nM in the experiment on LNCaP cells (24 h, 24 h, 1 μM CuSO4, read-out: IC50); 620 ± 40 nM in the experiment on LNCaP cells (24 h, 24 h, 1 μM CuSO4, read-out: IC50 with 1 μM CuSO4); 760 nM with LNCaP cells (24 h, initial experiments, after 24 h, 1 μM supplemental Cu(II), read-out: IC50). The IC50 in the experiment on LNCaP cells (72 h, 72 h, 1 μM CuSO4, read-out: IC50 with 1 μM CuSO4) was 500 ± 90 nM.
